Calls of active or inactive are those of the source.
Experiments:
[1] = growth suppression of beta-catenin-knockout colon cells, dose response, cell-based, HCT116, human colon tumor (AID 1045); assay type: functional;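 further: HCT116 colon tumor cells with beta catenin knocked out; cells exposed to compound for 60 hours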
[2] = growth suppression of PTEN-null colon cells, dose response, cell-based, HCT116 PTEN knockout (AID 1047); assay type: functional;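 further: HCT116 colon tumor cells with PTEN knocked out; cells exposed to compound for 60 hours before readout; potency for loss of cell viability measured by luminescence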
[3] = molecular target: T1, Mannose-6-phosphate isomerase (Homo sapiens, UniProt P34949); assay: human PMI inhibitors, high substrate, primary screen, biochemical, fluorescence intensity, high mannose 6-phosphate (AID 1220)
T1 sequence (P34949 whole entry): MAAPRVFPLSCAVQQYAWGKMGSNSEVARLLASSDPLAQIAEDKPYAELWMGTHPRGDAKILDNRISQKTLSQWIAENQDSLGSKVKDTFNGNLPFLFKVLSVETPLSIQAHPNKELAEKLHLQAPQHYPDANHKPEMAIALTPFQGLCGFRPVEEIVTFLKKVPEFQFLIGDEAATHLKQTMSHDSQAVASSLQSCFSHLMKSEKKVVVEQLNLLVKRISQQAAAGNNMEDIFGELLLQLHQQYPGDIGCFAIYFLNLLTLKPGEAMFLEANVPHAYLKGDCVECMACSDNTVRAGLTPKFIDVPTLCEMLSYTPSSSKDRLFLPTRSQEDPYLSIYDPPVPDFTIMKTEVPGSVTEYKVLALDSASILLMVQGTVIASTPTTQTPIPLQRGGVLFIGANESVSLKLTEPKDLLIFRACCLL

Large T antigen = Large T antigen (Simian virus 40, UniProt P03070); assay type: functional, Betapolyomavirus macacae;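 further: Confirmatory-stage PubChem screen for compounds that inhibit SV40 T antigen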
[4] = molecular target: T2, Microphthalmia-associated transcription factor (Homo sapiens, UniProt O75030); assay: TRPM1 promoter luciferase signal decrease, dose response, MITF inhibitor project, cell-based, SK-MEL-5, cherry-picked, set 3 (AID 493073); assay type: functional
T2 sequence (O75030 whole entry): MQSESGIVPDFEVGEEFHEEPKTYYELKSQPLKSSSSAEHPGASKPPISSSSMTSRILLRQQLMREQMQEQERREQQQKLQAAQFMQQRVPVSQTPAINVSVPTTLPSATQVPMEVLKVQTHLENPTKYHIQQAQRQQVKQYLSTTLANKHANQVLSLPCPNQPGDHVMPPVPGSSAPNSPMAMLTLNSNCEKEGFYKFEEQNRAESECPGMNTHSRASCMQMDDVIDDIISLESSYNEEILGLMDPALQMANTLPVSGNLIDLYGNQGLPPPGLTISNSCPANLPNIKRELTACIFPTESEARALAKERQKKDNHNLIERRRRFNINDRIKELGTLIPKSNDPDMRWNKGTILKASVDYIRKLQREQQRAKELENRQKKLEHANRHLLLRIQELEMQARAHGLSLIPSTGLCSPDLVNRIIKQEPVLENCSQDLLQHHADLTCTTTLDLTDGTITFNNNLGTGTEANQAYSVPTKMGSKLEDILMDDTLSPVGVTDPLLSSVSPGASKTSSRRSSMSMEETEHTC

[5] = molecular target: Heat shock protein HSP 90-alpha (Homo sapiens, UniProt P07900); assay type: functional, organism-based
Cytochrome P450 3A4 = Cytochrome P450 3A4 (Homo sapiens, UniProt P08684);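 further: CYP3A4 tested as one member of a cytochrome P450 panel screen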
Cytochrome P450 2D6 = Cytochrome P450 2D6 (Homo sapiens, UniProt P10635);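 further: CYP2D6 member of a cytochrome P450 panel assay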
Cytochrome P450 1A2 = molecular target: T3, Cytochrome P450 1A2 (Homo sapiens, UniProt P05177);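 further: PubChem cytochrome P450 panel assay, CYP1A2 panel member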
T3 sequence (P05177 whole entry): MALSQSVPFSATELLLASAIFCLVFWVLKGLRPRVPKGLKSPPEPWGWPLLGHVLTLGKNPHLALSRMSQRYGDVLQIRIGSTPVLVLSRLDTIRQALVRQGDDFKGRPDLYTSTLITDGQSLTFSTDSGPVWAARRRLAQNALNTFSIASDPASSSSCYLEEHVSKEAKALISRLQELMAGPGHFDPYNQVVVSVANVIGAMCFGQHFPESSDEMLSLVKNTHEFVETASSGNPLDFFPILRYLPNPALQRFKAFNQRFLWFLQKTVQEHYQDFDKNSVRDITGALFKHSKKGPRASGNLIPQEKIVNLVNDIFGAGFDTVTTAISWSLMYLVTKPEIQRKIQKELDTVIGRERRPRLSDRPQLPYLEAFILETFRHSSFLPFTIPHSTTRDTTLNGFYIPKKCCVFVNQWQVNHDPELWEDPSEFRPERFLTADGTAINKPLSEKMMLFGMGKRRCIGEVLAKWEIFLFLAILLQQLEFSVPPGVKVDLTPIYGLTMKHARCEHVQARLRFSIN

Cytochrome P450 2C19 = Cytochrome P450 2C19 (Homo sapiens, UniProt P33261); assay: Cytochrome panel assay with activity outcomes. Panel member name: p450-cyp2c19 Compounds with AC50 equal or less than 10 uM are considered active; assay type: functional; details: read-out: AC50
Cytochrome P450 2C9 = Cytochrome P450 2C9 (Homo sapiens, UniProt P11712)
[6] = Luminescence Cell-Based Dose Retest to Confirm Inhibitors of Cancer Stem Cells. [Related pubchem assays (depositor defined):AID2717, AID2721]; assay type: functional; details: Homo sapiens
INS1 = assay: beta cell apoptosis inhibitors, cytokine rescue, dose response, luminescence, retest (AID 449756); assay type: functional, cell-based; details: Rattus norvegicus;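 further: cell death triggered by IL-1 beta plus TNF-alpha plus IFN-gamma mixture; protective hits raise ATP signal compared with cytokine alone wells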
[7] = cytotoxicity in HEK-293T cells, dose response, cytotoxicity control for TCR NF-kB inhibitor project, luminescence, T-cell screen hits (AID 489026); assay type: functional, cell-based;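 further: cells exposed to compound about 14 hours before the viability readout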
Nonstructural protein 1 = Nonstructural protein 1 (Influenza A virus, UniProt Q194T2); assay type: functional, Influenza A virus (A/California/07/2009(H1N1))
[8] = molecular target: Induced myeloid leukemia cell differentiation protein Mcl-1 (Homo sapiens, UniProt Q07820); assay type: functional
[9] = P. falciparum 3D7-ScDHODH growth inhibitors, dose response, SYBR Green, dry powder samples (AID 1159570); assay type: functional, cell-based;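 further: parasite growth measured after 72 hours of compound exposure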
[10] = P. falciparum ATP4 D1247Y mutant growth inhibitors, dose response, NITD609-resistant line, SYBR Green, dry powder (AID 1159571); assay type: functional, cell-based;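 further: parasites synchronized at ring stage by sorbitol before testing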
[11] = P. falciparum Dd2 growth inhibitors, dose response, SYBR Green, dry powder samples (AID 1159566); assay type: functional, cell-based;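 further: potency for growth inhibition with lower SYBR green DNA signal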
[12] = P. falciparum Dd2 growth inhibitors, dose response, SYBR Green, cherry-picked samples (AID 1159567); assay type: functional, cell-based
[13] = molecular target: Luciferin 4-monooxygenase (Photinus pyralis, UniProt P08659); assay: firefly luciferase enzyme inhibitors, dose response, biochemical, luminescence (AID 1891)
[14] = Luminescence Cell-Based Dose Confirmation HTS to Identify Inhibitors of Platelet Dense Granule Release. [Related pubchem assays: 1663 (Primary HTS), 1678 (Summary of Project)]; assay type: functional
[15] = NIH-3T3 fibroblast cytotoxicity, dose response, cytotoxicity control, cell-based, fluorescence, Alamar Blue, secondary assay (AID 2327); assay type: functional;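 further: NIH-3T3 mouse fibroblasts cultured with fluconazole at 8 µg/mL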
[16] = THP-1 cell cytotoxicity, dose response, cytotoxicity control for non-replicating M. tuberculosis project (AID 489025); assay type: functional
cells = assay type: functional
[17] = C. albicans growth with fluconazole, confirmation, fluorescence, retest (AID 2467); assay type: functional, cell-based
[18] = Vero E6 cell cytotoxicity, dose response, cytotoxicity control for non-replicating M. tuberculosis project, secondary assay (AID 492998); assay type: functional, VeroE6; details: Vero C1008
Vero = assay: cells; assay type: functional; details: Chlorocebus sabaeus

Chain of Induced myeloid leukemia cell differentiation protein Mcl-1 (Q07820 whole entry): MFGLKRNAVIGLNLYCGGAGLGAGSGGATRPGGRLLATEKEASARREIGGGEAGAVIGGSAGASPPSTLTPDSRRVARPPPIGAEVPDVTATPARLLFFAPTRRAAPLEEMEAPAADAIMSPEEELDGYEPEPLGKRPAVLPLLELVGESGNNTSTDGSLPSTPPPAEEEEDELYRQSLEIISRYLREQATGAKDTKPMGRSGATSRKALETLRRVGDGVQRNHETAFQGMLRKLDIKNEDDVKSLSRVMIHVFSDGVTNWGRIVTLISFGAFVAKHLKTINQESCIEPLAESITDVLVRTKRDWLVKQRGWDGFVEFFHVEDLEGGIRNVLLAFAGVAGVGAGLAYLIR
Chain of Cytochrome P450 2C19 (P33261 whole entry): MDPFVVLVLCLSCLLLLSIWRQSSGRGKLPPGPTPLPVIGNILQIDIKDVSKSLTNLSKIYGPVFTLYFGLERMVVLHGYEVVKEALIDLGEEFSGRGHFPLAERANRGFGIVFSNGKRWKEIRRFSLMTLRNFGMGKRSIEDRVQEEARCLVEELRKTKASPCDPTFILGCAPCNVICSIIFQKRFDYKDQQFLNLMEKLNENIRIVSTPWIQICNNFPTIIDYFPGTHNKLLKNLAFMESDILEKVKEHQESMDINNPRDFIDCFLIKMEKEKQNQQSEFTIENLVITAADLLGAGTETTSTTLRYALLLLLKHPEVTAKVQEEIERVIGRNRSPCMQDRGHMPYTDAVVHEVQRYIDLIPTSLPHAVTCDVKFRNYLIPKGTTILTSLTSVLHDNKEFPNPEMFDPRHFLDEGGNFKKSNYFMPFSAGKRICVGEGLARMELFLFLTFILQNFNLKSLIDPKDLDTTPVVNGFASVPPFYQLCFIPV
Chain of Cytochrome P450 3A4 (P08684 whole entry): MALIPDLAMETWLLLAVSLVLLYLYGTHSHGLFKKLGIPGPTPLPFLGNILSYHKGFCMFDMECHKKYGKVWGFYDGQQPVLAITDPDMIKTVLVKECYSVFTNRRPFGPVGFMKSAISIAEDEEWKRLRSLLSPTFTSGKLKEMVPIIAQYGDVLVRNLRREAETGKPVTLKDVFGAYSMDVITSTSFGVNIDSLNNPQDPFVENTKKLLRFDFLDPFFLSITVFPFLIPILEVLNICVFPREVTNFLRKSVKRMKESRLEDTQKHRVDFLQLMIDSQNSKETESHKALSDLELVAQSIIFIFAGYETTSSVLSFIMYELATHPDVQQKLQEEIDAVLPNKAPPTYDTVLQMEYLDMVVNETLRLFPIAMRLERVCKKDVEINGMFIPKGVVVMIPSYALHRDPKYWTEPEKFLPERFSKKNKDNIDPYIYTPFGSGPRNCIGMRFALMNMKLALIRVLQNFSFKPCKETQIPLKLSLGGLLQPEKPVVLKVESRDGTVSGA
Chain of Cytochrome P450 2D6 (P10635 whole entry): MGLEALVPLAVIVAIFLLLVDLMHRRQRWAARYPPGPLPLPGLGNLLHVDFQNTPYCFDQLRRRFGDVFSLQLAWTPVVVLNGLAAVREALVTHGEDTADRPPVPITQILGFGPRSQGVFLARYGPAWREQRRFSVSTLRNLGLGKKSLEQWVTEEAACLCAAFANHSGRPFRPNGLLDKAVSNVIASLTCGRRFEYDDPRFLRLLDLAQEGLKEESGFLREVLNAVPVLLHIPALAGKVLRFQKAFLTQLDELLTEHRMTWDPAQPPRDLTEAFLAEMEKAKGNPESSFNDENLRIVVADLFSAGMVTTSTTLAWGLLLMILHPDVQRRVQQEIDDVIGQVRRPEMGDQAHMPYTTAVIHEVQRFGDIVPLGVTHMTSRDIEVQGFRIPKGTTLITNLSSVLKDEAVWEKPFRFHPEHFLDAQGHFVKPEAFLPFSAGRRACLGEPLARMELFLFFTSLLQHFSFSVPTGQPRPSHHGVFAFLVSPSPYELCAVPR
Chain of Cytochrome P450 2C9 (P11712 whole entry): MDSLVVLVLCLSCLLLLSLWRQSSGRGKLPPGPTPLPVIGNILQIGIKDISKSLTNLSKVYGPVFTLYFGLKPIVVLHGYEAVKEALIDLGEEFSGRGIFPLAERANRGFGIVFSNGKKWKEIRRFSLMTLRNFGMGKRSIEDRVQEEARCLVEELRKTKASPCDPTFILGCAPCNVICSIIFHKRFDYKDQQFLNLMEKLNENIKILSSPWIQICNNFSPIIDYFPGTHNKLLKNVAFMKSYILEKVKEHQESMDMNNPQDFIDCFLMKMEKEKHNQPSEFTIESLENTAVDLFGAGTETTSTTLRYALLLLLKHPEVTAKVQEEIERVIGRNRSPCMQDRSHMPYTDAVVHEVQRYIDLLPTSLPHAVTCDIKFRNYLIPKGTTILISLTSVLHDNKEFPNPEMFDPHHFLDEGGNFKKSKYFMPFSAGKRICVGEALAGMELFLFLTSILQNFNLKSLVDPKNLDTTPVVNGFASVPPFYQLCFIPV
Chain of Nonstructural protein 1 (Q194T2 whole entry): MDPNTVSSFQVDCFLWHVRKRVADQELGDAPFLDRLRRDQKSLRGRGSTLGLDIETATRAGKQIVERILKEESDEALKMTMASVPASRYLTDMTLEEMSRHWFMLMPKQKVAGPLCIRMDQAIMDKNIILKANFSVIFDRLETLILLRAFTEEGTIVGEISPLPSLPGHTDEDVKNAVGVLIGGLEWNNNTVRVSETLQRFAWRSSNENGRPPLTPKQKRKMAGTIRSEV
Chain of Large T antigen (P03070 whole entry): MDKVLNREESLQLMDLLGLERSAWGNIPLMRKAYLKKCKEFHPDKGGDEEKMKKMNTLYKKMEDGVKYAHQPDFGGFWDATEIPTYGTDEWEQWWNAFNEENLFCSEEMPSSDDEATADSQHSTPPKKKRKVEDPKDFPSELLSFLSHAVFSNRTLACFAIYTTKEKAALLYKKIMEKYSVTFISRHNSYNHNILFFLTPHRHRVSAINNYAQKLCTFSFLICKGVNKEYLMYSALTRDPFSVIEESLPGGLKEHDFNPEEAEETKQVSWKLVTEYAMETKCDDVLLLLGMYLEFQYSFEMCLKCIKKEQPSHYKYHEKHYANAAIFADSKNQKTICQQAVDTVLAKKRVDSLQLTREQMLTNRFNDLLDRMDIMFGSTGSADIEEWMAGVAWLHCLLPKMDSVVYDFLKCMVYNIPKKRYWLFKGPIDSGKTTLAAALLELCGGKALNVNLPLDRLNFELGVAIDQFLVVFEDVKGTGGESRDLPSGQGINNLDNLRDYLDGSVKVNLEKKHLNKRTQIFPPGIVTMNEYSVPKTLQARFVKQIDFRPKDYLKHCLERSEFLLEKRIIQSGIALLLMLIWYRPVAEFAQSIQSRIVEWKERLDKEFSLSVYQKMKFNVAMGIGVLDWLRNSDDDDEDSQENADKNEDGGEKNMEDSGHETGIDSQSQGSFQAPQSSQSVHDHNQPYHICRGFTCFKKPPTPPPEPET
Chain of Luciferin 4-monooxygenase (P08659 whole entry): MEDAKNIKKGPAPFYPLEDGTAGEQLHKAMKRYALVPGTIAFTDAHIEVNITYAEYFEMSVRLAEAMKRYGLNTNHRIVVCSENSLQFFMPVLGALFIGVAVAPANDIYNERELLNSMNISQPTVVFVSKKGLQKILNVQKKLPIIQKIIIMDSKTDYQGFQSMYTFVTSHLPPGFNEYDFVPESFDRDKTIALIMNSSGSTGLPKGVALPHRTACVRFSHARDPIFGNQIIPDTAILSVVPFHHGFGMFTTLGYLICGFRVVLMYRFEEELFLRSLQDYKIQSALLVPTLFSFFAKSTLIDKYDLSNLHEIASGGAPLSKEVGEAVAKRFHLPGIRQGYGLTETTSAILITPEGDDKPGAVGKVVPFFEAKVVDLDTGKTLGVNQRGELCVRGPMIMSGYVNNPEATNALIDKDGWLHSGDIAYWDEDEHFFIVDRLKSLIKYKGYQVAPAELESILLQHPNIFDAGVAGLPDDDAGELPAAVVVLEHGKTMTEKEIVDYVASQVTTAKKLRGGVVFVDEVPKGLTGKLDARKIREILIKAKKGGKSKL

Structure (SMILES): C=CCN1C(=O)/C(=C/c2cc(C)n(-c3cccnc3)c2C)C(=O)NC1=S
- EC50 [1]: 53.3 µM (active)
- EC50 [2]: 89.5 µM (active)
- IC50 [3]: > 50 µM (not active)
- IC50 (Large T antigen): 66.7 µM (active)
- AC50 [4]: 16.8 µM (active)

Structure (SMILES): C[C@@]12C(=O)Nc3ccc(Cl)cc3C(=O)N1[C@H]1c3ccccc3OC[C@@H]1[C@@H]2c1ccccc1
- AC50 [5]: 0.611 µM (active)

Structure (SMILES): Cc1cccc(-c2csc(N)c2C(=O)OC(C)C)c1
- IC50 [3]: > 50 µM (not active)

Structure (SMILES): CCOC(=O)C1=C(C)N=C2SC(C(=O)OC)=CC(=O)N2C1c1ccc(F)cc1 (stereo unspecified)
- AC50 (Cytochrome P450 3A4): inconclusive
- AC50 (Cytochrome P450 2D6): 12.6 µM (inconclusive)
- AC50 (Cytochrome P450 1A2): 31.6 µM (inconclusive)

Structure (SMILES): COc1ccccc1C(=O)NNC(=S)NC(=O)c1ccco1
- AC50 [5]: 1.42 µM (active)

Structure (SMILES): CCCOc1ccc(N2C(=O)CC(N3CCC(C(=O)OCC)CC3)C2=O)cc1 (stereo unspecified)
- AC50 [5]: 3.1 µM (active)

Structure (SMILES): COc1ccc(N(C)C(=S)Nc2ccc3nc(C)c(C)nc3c2)cc1
- IC50 [3]: > 50 µM (not active)

Structure (SMILES): Cn1c(=O)c(-c2ccccc2)nc2cnc(N3CCOCC3)nc21
- AC50 (Cytochrome P450 2C19): 39.8 µM (inconclusive)
- AC50 (Cytochrome P450 3A4): inconclusive
- AC50 (Cytochrome P450 2C9): 39.8 µM (inconclusive)

Structure (SMILES): Cc1ccc(NC(=S)Nc2cccc3cnccc23)cc1
- IC50 [3]: > 50 µM (not active)

Structure (SMILES): C/C(=N\NC(=O)c1cc(C)nc2ccccc12)c1ccccn1
- AC50 [6]: 3.37 µM (active)
- AC50 (INS1): 0.626 µM (active)
- IC50 [7]: > 80 µM (inactive)
- IC50 (Nonstructural protein 1): 2.23 µM (active)

Structure (SMILES): CC1(C)CC(=O)C(=CNc2cccc(/N=C/C3=C(O)CC(C)(C)CC3=O)n2)C(=O)C1
- IC50 [8]: 1.31 µM (not active)

Structure (SMILES): COc1ccc(-c2ccc([C@H]3[C@H](C#N)N(C(=O)c4cccc(F)c4)[C@H]3CO)cc2)cc1
- AC50 [9]: 2.24 µM (active)
- AC50 [10]: 2 µM (active)
- AC50 [11]: 1.85 µM (active)
- AC50 [12]: 2.71 µM (active)

Structure (SMILES): O=C(c1cccc(F)c1)N1CCC2(CC1)CN(c1cccc(-c3ccccc3)c1)C2
- AC50 (Cytochrome P450 3A4): inconclusive
- AC50 (Cytochrome P450 1A2): 12.6 µM (inconclusive)

Structure (SMILES): COc1ccc(C(=O)N(C)Cc2cnn(Cc3ccccc3)c2)cc1S(=O)(=O)N1CCOCC1
- IC50 [7]: > 80 µM (inactive)

Structure (SMILES): Cc1c(NS(=O)(=O)c2cc(NC(=O)CCN3CCCC(C)C3)ccc2Cl)c(=O)n(-c2ccccc2)n1C (stereo unspecified)
- IC50 [8]: 4.67 µM (not active)

Structure (SMILES): COC(=O)N1CCC2(CC1)CN(c1ccccn1)C2
- AC50 (Cytochrome P450 3A4): inconclusive
- AC50 (Cytochrome P450 2D6): 10 µM (inconclusive)

Structure (SMILES): Cc1cnc(CNc2cc(-c3ccccc3C)ncn2)cn1
- AC50 (Cytochrome P450 3A4): inconclusive

Structure (SMILES): COc1cc2c(cc1OC)C1=C(C#N)CN(CC(=O)O)CN1CC2
- EC50 [13]: > 112 µM (not active)
- IC50 [3]: 34.1 µM (active)
- EC50 [14]: > 112 µM (not active)

Structure (SMILES): COc1cc(/C=C/c2nc3ccccc3c(=O)n2-c2cccc(O)c2)ccc1O
- IC50 [8]: 8.49 µM (active)

Structure (SMILES): O=C(N/N=C\c1ccc([N+](=O)[O-])s1)c1cncc(Br)c1
- EC50 [1]: 0.452 µM (active)
- EC50 [2]: 1.09 µM (active)
- EC50 [15]: 29.4 µM (active)
- AC50 (INS1): 7.04 µM (active)
- CC50 [16]: 5.8 µM (active)
- IC50 (cells): 12.6 µM (active)
- EC50 [17]: 4.15 µM (active)
- AC50 [4]: 4.34 µM (active)
- CC50 [18]: 4.83 µM (active)

Structure (SMILES): O=C(N/N=C/c1ccc(O)c(O)c1)/C(O)=C\C1=NC2(CCCC2)Cc2ccccc21
- IC50 [8]: 3.56 µM (active)

Structure (SMILES): O=C(Nc1ccccn1)c1ccc([N+](=O)[O-])o1
- CC50 [16]: 26.3 µM (active)
- IC50 (cells): 13.6 µM (active)
- CC50 [18]: 13.4 µM (active)
- CC50 (Vero): > 25 µM (active)

Structure (SMILES): C[C@@H]1CN([C@@H](C)CO)C(=O)c2cccc(NC(=O)c3nc4ccccc4s3)c2O[C@H]1CN(C)C(=O)Nc1cccc2ccccc12
- AC50 [9]: 0.595 µM (active)
- AC50 [10]: 0.802 µM (active)
- AC50 [11]: 0.766 µM (active)

Structure (SMILES): Oc1ccc2[nH]cc(CCCCN3CC=C(c4ccccc4)CC3)c2c1 [ROXINDOLE]
- AC50 (Cytochrome P450 2C19): 20 µM (inconclusive)
- AC50 (Cytochrome P450 3A4): inconclusive
- AC50 (Cytochrome P450 2C9): 12.6 µM (inconclusive)

Structure (SMILES): CC(/C=N\Nc1n[nH]c2c3cccc(C)c3nc-2n1)=C\c1ccco1
- IC50 [8]: 3.46 µM (active)

Structure (SMILES): O=C(c1ccco1)N1CCC2(CC1)CN(c1ccc(-c3ccccc3)cc1)C2
- AC50 (Cytochrome P450 2C19): 0.158 µM (inconclusive)
- AC50 (Cytochrome P450 3A4): inconclusive
- AC50 (Cytochrome P450 1A2): 1 µM (inconclusive)

Source: ChEMBL document CHEMBL1201862, “PubChem BioAssay data set” (2004)
